Measured values from US20210130401A1, “PEPTIDOMIMETIC INHIBITORS OF THE WDR5-MLL INTERACTION” (THE REGENTS OF THE UNIVERSITY OF MICHIGAN, priority 2017, published 2021).
Like-named read-outs stand apart in the source and are kept apart here. Starred links: 1 amine or outer side, 2 acyl side, 3 side chain; linkers in the order of their positions; H or OH if unused. Positions of bridges follow the written chain, without caps; N, C: chain ends. Non-standard residues stand in square brackets, D forms with d. Residues, ends and D or L forms follow the SMILES beside them. *: point of attachment. dαMeLys(Me) = CN(CCCC[C@@](C)(N[*:1])C(=O)[*:2])[*:3]; dαMeDab = C[C@](CCN[*:3])(N[*:1])C(=O)[*:2]; Arg(Me2s) = CN=C(NC)NCCC[C@H](N)C(=O)O; dPhg(4-F) = N[C@@H](C(=O)O)c1ccc(F)cc1; Arg(Me) = CNC(=N)NCCC[C@H](N)C(=O)O; d(αMeOrn) = C[C@@](N)(CCCN)C(=O)O; d(αMeK) = C[C@@](N)(CCCCN)C(=O)O; dPhg = N[C@@H](C(=O)O)c1ccccc1; Phg = N[C@H](C(=O)O)c1ccccc1; αMeK = C[C@](N)(CCCCN)C(=O)O; dDab = NCC[C@@H](N)C(=O)O; Isobutyryl = CC(C)C(=O)*; dAbu = CC[C@@H](N)C(=O)O; Abu = CC[C@H](N)C(=O)O

What was measured:
[1] = test system: HL-60 leukemia cells carrying no MLL fusion; assay: cell viability assay (WST-8), HL-60; type: cell-based; conditions: Homo sapiens, HL-60, 96 h, read-out: Cell Growth Inhibition IC50 (μM) HL-60
Description: Cell viability was determined using the WST-8 cell proliferation assay kit (Dojindo Molecular Technologies) according to manufacturer's instructions. Three independent experiments in triplicates were performed.

[2] = test system: MOLM-13 leukemia cells carrying MLL-AF9 fusion; assay: cell viability assay (WST-8), MOLM-13; type: cell-based; conditions: Homo sapiens, MOLM-13, 96 h, read-out: Cell Growth Inhibition IC50 (μM) MOLM-13
WDR5 = biological target: T1, WDR5 (Homo sapiens, UniProt P61964); assay: fluorescence polarization (FP) based competitive binding assay to WDR5 protein
T1 construct: N-terminal His-tagged WDR5 protein (residues 24-334), named WDR5Δ23; made in house; host or cells: E. coli Rosetta 2 (DE3)
Description: The plates were incubated at room temperature on a shaker for 3h, and then the mP values were measured using the Tecan Infinite M-1000 plate reader (Tecan U.S., Research Triangle Park, N.C.).

[3] = test system: MV4;11 leukemia cells carrying MLL-AF4 fusion; assay: cell viability assay (WST-8), MV4;11; type: cell-based; conditions: Homo sapiens, MV4-11, 96 h, read-out: Cell Growth Inhibition IC50 (μM) MV-4-11
Description: To assess cell viability, MOLM-13 leukemia cells carrying MLL-AF9 fusion, MV4;11 leukemia cells carrying MLL-AF4 fusion or HL-60 leukemia cells carrying no MLL fusion were seeded 1×10^4 cell/well in 96-well plates and treated with an inhibitor for 4 days at different concentrations, in culture media containing 0.2% DMSO as the final concentration. Cell viability was determined using the WST-8 cell proliferation assay kit (Dojindo Molecular Technologies) according to manufacturer's instructions. Three independent experiments in triplicates were performed.

MLL complex = biological target: T2, MLL complex (Homo sapiens, UniProt P61964); assay: AlphaLISA MLL HMT functional assay (cell-free); type: biochemical; conditions: read-out: Inhibition of MLL HMT Activity IC50 ± SD
T2 construct: full length human WDR5 with N-terminal 6×His tag; purchased Activmotif (Carlsbad, Calif.)
Description: To avoid multiple wash and transfer steps, an amplified luminescent proximity homogeneous assay (AlphaLISA) was developed and optimized to evaluate the MLL HMT inhibitory activities of the Compounds of the Disclosure.
In this assay, recombinant nucleosomes are initially treated with the MLL complex for methylation in the presence of S-Adenosyl methionine (SAM) as cofactor before stopping the reaction with high salt buffer. Then, anti-H3K4Mel/2 antibody, which is covalently linked to acceptor beads, and biotinylated anti-H3 (C-terminus) antibody were added.
Anti-Histone H3 Lysine 4 (H3K4mel-2) AlphaLISA acceptor beads, AlphaScreen Streptavidin donor beads and biotinylated anti-H3 (C-terminus) antibody were obtained from PerkinElmer Life Sciences (Waltham, Mass.). 2.5 μl of compound serial dilutions in assay buffer with 4% DMSO and 5 μl of pentameric MLL complex solution were added into a white low volume 384 well microtiter plate which was incubated for 30 minutes with gentle shaking at room temperature, followed by adding 2.5 μl of SAM/Nucleosome mixture. The methylation reaction was performed in 50 mM Tris, pH 8.5 with 1 mM DTT and 0.01% Tween-20 added right before the assay. Final concentrations of MLL complex, SAM, and nucleosomes were 5 nM, 200 nM, and 3 nM, respectively. Final DMSO in the reaction mixture was 1%. The reaction was allowed to perform for 120 minutes in dark with gentle shaking at room temperature. […] 5 μL of high salt stopping solution (50 mM Tris, pH 7.4 with 1 M NaCl, 0.1% Tween-20, and 0.3% poly-L-Lysine) was added to stop the methylation reactions for 15 minutes. 5 μl of 5× acceptor beads/biotinylated anti-H3 antibody mixture in detection buffer (50 mM Tris, pH 7.4 with 0.3 M NaCl, 0.1% Tween-20, and 0.001% poly-L-Lysine) was added, followed by 1 hour incubation at room temperature to allow full interaction between antibodies and methylated nucleosomes. Add 5 μL of 5× streptavidin donor beads in detection and incubate 30 minutes.

[4] = calculated from IC50 by published equation, read-out: Binding Affinity to WDR5 Ki ± SD
[5] = read-out: Binding Affinity to WDR5 IC50 ± SD

SMILES | IC50 [1] [µM] | IC50 [2] [µM] | IC50 (WDR5) [µM] | Ki (WDR5) [µM] | IC50 [3] [µM] | IC50 (MLL complex) [µM] | IC50 ([1]; 4 days treatment) [µM] | IC50 ([2]; 4 days treatment) [µM] | Ki (WDR5; [4]) [µM] | IC50 (WDR5; [5]) [µM] | IC50 ([3]; 4 days treatment) [µM]
CC[C@@H]1NC(=O)[C@H](CCCNC(=N)N)NC(=O)[C@](C)(NC(=O)C(C)C)CCCCCCNC(=O)[C@@H](c2ccccc2)NC1=O [Cpd. No. 76, N-((3R,6S,9S,12R)-6-ethyl-9-(3-guanidinopropyl)-12-methyl-2,5,8,11-tetraoxo-3-phenyl-1,4,7,10-tetraazacyclooctadecan-12-yl)isobutyramide] | 29.7 ± 11.5 | 5.6 ± 0.7 | 0.001 ± 0.0002 | < 0.001 | 3.2 ± 0.4 | 0.216 ± 0.088 | – | – | – | – | –
CC[C@@H]1NC(=O)[C@H](CCCNC(=N)N)NC(=O)[C@](C)(NC(=O)C(C)C)CCCCNC(=O)[C@@H](c2ccccc2)NC1=O [Cpd. No. 64, N-((3R,6S,9S,12R)-6-ethyl-9-(3-guanidinopropyl)-12-methyl-2,5,8,11-tetraoxo-3-phenyl-1,4,7,10-tetraazacyclohexadecan-12-yl)isobutyramide] (Isobutyryl-[d(αMeK)]R[Abu][dPhg]; lactam 1-C) | > 100 | – | – | – | – | – | – | – | – | – | –
CC[C@@H]1NC(=O)[C@H](CCCNC(=N)N)NC(=O)[C@](C)(NC(=O)C(C)C)CCCCCNC(=O)[C@@H](c2ccccc2)NC1=O [Cpd. No. 75, N-((3R,6S,9S,12R)-6-ethyl-9-(3-guanidinopropyl)-12-methyl-2,5,8,11-tetraoxo-3-phenyl-1,4,7,10-tetraazacycloheptadecan-12-yl)isobutyramide] | – | – | – | – | – | – | > 100 | 37.6 ± 12.1 | < 0.001 | 0.0026 ± 0.0002 | 15.1 ± 11.8
CC[C@@H]1NC(=O)[C@H](CCCNC(=N)N)NC(=O)[C@](C)(NC(=O)C(C)C)CCCNC(=O)[C@@H](c2ccccc2)NC1=O [Cpd. No. 74, N-((3R,6S,9S,12R)-6-ethyl-9-(3-guanidinopropyl)-12-methyl-2,5,8,11-tetraoxo-3-phenyl-1,4,7,10-tetraazacyclopentadecan-12-yl)isobutyramide] (Isobutyryl-[d(αMeOrn)]R[Abu][dPhg]; lactam 1-C) | – | – | – | – | – | – | 46.8 | 1.28 ± 0.01 | < 0.001 | 0.00097 ± 0.00013 | 1.29
CC[C@H]1NC(=O)[C@@H](CCCNC(=N)N)NC(=O)[C@@](C)(NC(=O)C(C)C)CCCCNC(=O)[C@H](c2ccccc2)NC1=O [Cpd. No. 70, N-((3S,6R,9R,12S)-6-ethyl-9-(3-guanidinopropyl)-12-methyl-2,5,8,11-tetraoxo-3-phenyl-1,4,7,10-tetraazacyclohexadecan-12-yl)isobutyramide] (Isobutyryl-[αMeK][dR][dAbu][Phg]; lactam 1-C) | > 100 | > 100 | – | – | > 100 | – | – | – | – | – | –
CC[C@@H]1NC(=O)[C@H](CCCNC(=N)NC)NC(=O)[C@](C)(NC(=O)C(C)C)CCCCNC(=O)[C@@H](c2ccccc2)NC1=O [Cpd. No. 68, N-((3R,6S,9S,12R)-6-ethyl-12-methyl-9-(3-(3-methylguanidino)propyl)-2,5,8,11-tetraoxo-3-phenyl-1,4,7,10-tetraazacyclohexadecan-12-yl)isobutyramide] (Isobutyryl-[d(αMeK)][Arg(Me)][Abu][dPhg]; lactam 1-C) | > 100 | 3.6 ± 0.8 | 0.0011 ± 0.0003 | < 0.001 | 4.3 ± 1.5 | – | – | – | – | – | –
CC[C@@H]1NC(=O)[C@H](CCCNC(=N)N)NC(=O)[C@](C)(NC(=O)C(C)C)CCCCCCCCNC(=O)[C@@H](c2ccccc2)NC1=O [Cpd. No. 77, N-((3R,6S,9S,12R)-6-ethyl-9-(3-guanidinopropyl)-12-methyl-2,5,8,11-tetraoxo-3-phenyl-1,4,7,10-tetraazacycloicosan-12-yl)isobutyramide] | > 100 | 21.6 ± 4.8 | 0.0013 ± 0.0002 | < 0.001 | 7.5 ± 3 | 0.744 ± 0.079 | – | – | – | – | –
CC[C@@H]1NC(=O)[C@H](CCCNC(=N)N)NC(=O)[C@](C)(NC(=O)C(C)C)CCNC(=O)[C@@H](c2ccccc2)NC1=O [Cpd. No. 4, N-((3R,6S,9S,12R)-6-ethyl-9-(3-guanidinopropyl)-12-methyl-2,5,8,11-tetraoxo-3-phenyl-1,4,7,10-tetraazacyclotetradecan-12-yl)isobutyramide] (Isobutyryl-[dαMeDab]R[Abu][dPhg]; lactam 1-C) | – | – | – | – | – | – | 17.4 | 0.28 ± 0.02 | < 0.001 | 0.00108 ± 0.00012 | 0.46 ± 0.02
CC[C@@H]1NC(=O)[C@H](CCCNC(=N)N)NC(=O)[C@](C)(NC(=O)C(C)C)CCCCN(C)C(=O)[C@@H](c2ccc(F)cc2)NC1=O [Cpd. No. 66, N-((3R,6S,9S,12R)-6-ethyl-3-(4-fluorophenyl)-9-(3-guanidinopropyl)-1,12-dimethyl-2,5,8,11-tetraoxo-1,4,7,10-tetraazacyclohexadecan-12-yl)isobutyramide] (Isobutyryl-[dαMeLys(Me)]R[Abu][dPhg(4-F)]; lactam 1-C) | 60 ± 19.7 | 16.2 ± 6.1 | 0.0016 ± 0.001 | < 0.001 | 5.2 ± 1.1 | – | – | – | – | – | –
CC[C@@H]1NC(=O)[C@H](CCCNC(=N)N)NC(=O)[C@H](NC(=O)C(C)C)CCNC(=O)[C@@H](c2ccccc2)NC1=O [Cpd. No. 1, N-((3R,6S,9S,12R)-6-ethyl-9-(3-guanidinopropyl)-2,5,8,11-tetraoxo-3-phenyl-1,4,7,10-tetraazacyclotetradecan-12-yl)isobutyramide] (Isobutyryl-[dDab]R[Abu][dPhg]; lactam 1-C) | – | – | – | – | – | 0.0018 ± 0.0004 | > 100 | 42.8 | 0.0008 ± 0.0001 | 0.0062 ± 0.0005 | 43.4
CC[C@@H]1NC(=O)[C@H](CCCNC(=N)NC)NC(=O)[C@](C)(NC(=O)C(C)C)CCNC(=O)[C@H](c2ccccc2)NC1=O [Cpd. No. 62, N-((3S,6S,9S,12R)-6-ethyl-12-methyl-9-(3-(3-methylguanidino)propyl)-2,5,8,11-tetraoxo-3-phenyl-1,4,7,10-tetraazacyclotetradecan-12-yl)isobutyramide] (Isobutyryl-[dαMeDab][Arg(Me)][Abu][Phg]; lactam 1-C) | – | – | – | – | – | – | – | 14.3 ± 0.9 | < 0.001 | 0.002 ± 0.0001 | 35 ± 4.4
CC[C@@H]1NC(=O)[C@H](CCCN/C(=N/C)NC)NC(=O)[C@](C)(NC(=O)C(C)C)CCCCNC(=O)[C@@H](c2ccccc2)NC1=O [Cpd. No. 69, N-((3R,6S,9S,12R)-9-(3-((E)-2,3-dimethylguanidino)propyl)-6-ethyl-12-methyl-2,5,8,11-tetraoxo-3-phenyl-1,4,7,10-tetraazacyclohexadecan-12-yl)isobutyramide] (Isobutyryl-[d(αMeK)][Arg(Me2s)][Abu][dPhg]; lactam 1-C) | 84.8 ± 13.2 | 31.5 ± 9.8 | 0.0024 ± 0.0007 | < 0.001 | 15.2 ± 2.9 | – | – | – | – | – | –
